ChEMBL document CHEMBL1201862, “PubChem BioAssay data set” (2004)
Where a name gives a salt, the structure may show the parent alone. Calls of active or inactive are those of the source.

Columns and labels:
[1] = biological target: Dual specificity tyrosine-phosphorylation-regulated kinase 1A (Rattus norvegicus, UniProt Q63470); assay type: biochemical, Homo sapiens
[2] = test system: HEK293; assay: cells; conditions: Homo sapiens
[3] = test system: HEK293; assay: NOD2 signaling inhibitors in MDP-stimulated cells, cell-based, uHTS, luminescence (AID 2001); assay type: functional; conditions: Homo sapiens
[4] = test system: HEK293; assay: cells; assay type: functional, cell-based; conditions: Homo sapiens
[5] = test system: Streptococcus sp. 'group A'; assay: Streptococcus pyogenes SK(-)GAS viability under kanamycin – luminescence, BacTiterGlo, confirmation, counter-screen for streptokinase expression inhibitor project, dose response (AID 1900); assay type: functional, organism-based
[6] = test system: HEK293; assay: inhibition of NOD1-driven NF-kB reporter – cell-based, luminescence, uHTS, primary screen (AID 1578); assay type: functional; conditions: Homo sapiens
[7] = test system: HEK293; assay: cells; assay type: functional, cell-based; conditions: Homo sapiens; remark: listed apart in the source
[8] = test system: Streptococcus; assay: GAS UMAA2166 growth inhibition – luminescence, BacTiterGlo, counter-screen for streptokinase expression inhibitor project, dose response (AID 1915); assay type: functional, organism-based;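 also: potency for reduction of bacterial viability or growth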
[9] = biological target: T1, Endoribonuclease toxin MazF (Escherichia coli K-12, UniProt P0AE70); assay: activation of MazEF endoribonuclease cleavage – biochemical, fluorescence, single-stranded RNA substrate, uHTS hits, dose response (AID 588481); assay type: functional
T1 sequence (P0AE70 whole entry): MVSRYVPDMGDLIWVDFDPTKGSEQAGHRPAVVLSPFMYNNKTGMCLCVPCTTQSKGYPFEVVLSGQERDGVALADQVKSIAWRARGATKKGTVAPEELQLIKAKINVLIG

[10] = test system: INS1; assay: INS-1E survival protection against cytokine death – cell-based, luminescence, retest, dose response (AID 449756); assay type: functional; conditions: Rattus norvegicus;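 also: cell death triggered by IL-1 beta plus TNF-alpha plus IFN-gamma mixture; protective hits raise ATP signal compared with cytokine alone wells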
[11] = biological target: T2, SUMO-activating enzyme (Homo sapiens, UniProt Q9UBT2); assay: blockers of UBC9-mediated SUMO conjugation – biochemical, AlphaScreen, SUMOylation inhibitor project, confirmation (AID 2018); assay type: functional
[12] = biological target: T3, Heat shock factor protein 1 (Mus musculus, UniProt P38532); assay: enhancement of HSF1-driven luciferase signal – cell-based, NIH3T3, luminescence, dose retest, confirmation (AID 435004); assay type: functional;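 also: stress induced by proteasome inhibitor MG132 added 30 min after compound; luciferase reporter driven by HSF1 response element in NIH3T3 cells; actives raise luminescence as potentiators of the MG132 stress response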
T3 sequence (P38532 whole entry): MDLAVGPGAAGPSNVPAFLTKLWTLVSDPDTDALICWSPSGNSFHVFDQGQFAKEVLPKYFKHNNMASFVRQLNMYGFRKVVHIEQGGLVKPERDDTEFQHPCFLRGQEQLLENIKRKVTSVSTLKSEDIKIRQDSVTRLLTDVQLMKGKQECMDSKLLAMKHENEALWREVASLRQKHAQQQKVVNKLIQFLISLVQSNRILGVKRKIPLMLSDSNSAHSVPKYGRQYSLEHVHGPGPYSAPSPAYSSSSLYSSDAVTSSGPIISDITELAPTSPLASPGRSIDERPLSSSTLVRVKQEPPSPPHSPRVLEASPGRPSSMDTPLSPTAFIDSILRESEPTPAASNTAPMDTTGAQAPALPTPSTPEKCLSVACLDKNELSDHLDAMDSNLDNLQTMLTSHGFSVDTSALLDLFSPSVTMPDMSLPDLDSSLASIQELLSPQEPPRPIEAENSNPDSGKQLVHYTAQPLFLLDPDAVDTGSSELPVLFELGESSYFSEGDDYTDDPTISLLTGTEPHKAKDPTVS

[13] = biological target: T2, SUMO-activating enzyme; assay: blockers of SAE1/SAE2–UBC9 SUMO transfer – biochemical, HTRF, uHTS, primary screen (AID 2006); assay type: protein-complex assay
[14] = biological target: T1, Endoribonuclease toxin MazF; assay: substrate-only fluorescence increase artefacts – biochemical, single-stranded RNase substrate, counter-screen for MazEF activator project, dose response (AID 588502); assay type: functional
[15] = biological target: Glucose-6-phosphate 1-dehydrogenase (Homo sapiens, UniProt P11413); assay: inhibition of Homo sapiens G6PD, dose series – biochemical, fluorescence, selectivity assay for P. falciparum G6PD inhibitor project, dose response (AID 504792); assay type: functional
[16] = biological target: Peroxisome proliferator-activated receptor gamma/Nuclear receptor coactivator 2 (Homo sapiens, UniProt P37231); assay: (§1) TR-FRET dose response biochemical High Throughput Screening assay for agonists of the steroid receptor coactivator 2 (SRC-2) recruitment by the peroxisome proliferator-activated receptor gamma (PPAR gamma): non-selective agonists. [Related pubchem assays: 1297, 1032 ]; assay type: functional
[17] = biological target: Peroxisome proliferator-activated receptor gamma/Nuclear receptor coactivator 3 (Homo sapiens, UniProt P37231); assay: as §1, with “3 (SRC-3)” for “2 (SRC-2)”, “1301 (Confirmation screen.), 1048 (Primary screen.)]” for “1297, 1032 ]”; assay type: functional
[18] = biological target: Peroxisome proliferator-activated receptor gamma/Nuclear receptor coactivator 1 (Homo sapiens, UniProt P37231); assay: as §1, with “1 (SRC-1)” for “2 (SRC-2)”, “assays (depositor defined):AID1300, AID1808, AID504735, AID631]” for “assays: 1297, 1032 ]”; assay type: protein assay
[19] = test system: HEK293; assay: EBV LMP1 TES2 canonical NF-kB signalling blockers – cell-based, HEK293, luciferase, cherry-pick, dose response (AID 588343); assay type: functional; conditions: Homo sapiens
[20] = biological target: Voltage-gated inwardly rectifying potassium channel KCNH2 (Homo sapiens, UniProt Q12809); conditions: Potency;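 also: confirmatory quantitative high-throughput screen measuring inhibition of hERG channel activity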
[21] = biological target: T4, DNA repair protein RAD52 homolog (Homo sapiens, UniProt P43351); assay type: functional, biochemical
T4 sequence (P43351 whole entry): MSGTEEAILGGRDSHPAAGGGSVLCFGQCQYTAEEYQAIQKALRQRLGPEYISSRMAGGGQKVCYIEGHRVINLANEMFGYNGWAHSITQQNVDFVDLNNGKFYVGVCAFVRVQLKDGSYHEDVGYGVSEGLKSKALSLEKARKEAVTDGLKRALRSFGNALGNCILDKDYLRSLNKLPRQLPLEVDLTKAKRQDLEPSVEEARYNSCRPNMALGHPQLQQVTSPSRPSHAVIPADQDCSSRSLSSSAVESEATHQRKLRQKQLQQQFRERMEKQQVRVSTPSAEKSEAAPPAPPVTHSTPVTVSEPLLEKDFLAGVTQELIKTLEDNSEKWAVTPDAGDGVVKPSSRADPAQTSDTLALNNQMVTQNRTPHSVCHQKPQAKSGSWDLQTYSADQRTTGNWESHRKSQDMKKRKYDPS

Chain of Voltage-gated inwardly rectifying potassium channel KCNH2 (Q12809 whole entry): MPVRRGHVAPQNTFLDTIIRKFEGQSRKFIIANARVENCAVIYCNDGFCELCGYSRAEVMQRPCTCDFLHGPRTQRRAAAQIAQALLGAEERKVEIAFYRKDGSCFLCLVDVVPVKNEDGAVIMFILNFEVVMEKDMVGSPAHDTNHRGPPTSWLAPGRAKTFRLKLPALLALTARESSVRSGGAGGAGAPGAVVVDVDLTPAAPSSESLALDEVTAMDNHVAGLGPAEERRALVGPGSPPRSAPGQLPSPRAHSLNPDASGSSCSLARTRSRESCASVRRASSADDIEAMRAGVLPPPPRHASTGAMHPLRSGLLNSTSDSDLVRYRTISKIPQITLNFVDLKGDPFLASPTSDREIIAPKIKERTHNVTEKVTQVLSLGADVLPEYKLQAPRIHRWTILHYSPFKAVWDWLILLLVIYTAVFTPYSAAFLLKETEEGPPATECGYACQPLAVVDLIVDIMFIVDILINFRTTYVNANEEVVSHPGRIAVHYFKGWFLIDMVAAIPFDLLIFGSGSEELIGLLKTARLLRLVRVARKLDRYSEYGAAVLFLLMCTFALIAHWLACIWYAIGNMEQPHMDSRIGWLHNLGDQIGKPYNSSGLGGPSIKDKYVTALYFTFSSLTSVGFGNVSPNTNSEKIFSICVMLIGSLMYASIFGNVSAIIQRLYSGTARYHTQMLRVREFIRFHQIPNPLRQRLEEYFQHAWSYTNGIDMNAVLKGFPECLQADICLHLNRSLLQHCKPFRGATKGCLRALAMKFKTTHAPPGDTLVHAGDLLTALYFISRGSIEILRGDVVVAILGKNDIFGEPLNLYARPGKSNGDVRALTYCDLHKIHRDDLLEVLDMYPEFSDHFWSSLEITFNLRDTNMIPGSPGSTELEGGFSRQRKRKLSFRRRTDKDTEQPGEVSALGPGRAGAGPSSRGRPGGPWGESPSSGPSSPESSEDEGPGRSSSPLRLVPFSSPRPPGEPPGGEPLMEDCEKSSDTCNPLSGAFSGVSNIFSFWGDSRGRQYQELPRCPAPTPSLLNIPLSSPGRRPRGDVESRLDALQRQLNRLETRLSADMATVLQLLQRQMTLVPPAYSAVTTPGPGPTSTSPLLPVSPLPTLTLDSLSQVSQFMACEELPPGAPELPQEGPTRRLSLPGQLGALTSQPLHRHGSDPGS
Chain of Peroxisome proliferator-activated receptor gamma/Nuclear receptor coactivator 2 (P37231 whole entry): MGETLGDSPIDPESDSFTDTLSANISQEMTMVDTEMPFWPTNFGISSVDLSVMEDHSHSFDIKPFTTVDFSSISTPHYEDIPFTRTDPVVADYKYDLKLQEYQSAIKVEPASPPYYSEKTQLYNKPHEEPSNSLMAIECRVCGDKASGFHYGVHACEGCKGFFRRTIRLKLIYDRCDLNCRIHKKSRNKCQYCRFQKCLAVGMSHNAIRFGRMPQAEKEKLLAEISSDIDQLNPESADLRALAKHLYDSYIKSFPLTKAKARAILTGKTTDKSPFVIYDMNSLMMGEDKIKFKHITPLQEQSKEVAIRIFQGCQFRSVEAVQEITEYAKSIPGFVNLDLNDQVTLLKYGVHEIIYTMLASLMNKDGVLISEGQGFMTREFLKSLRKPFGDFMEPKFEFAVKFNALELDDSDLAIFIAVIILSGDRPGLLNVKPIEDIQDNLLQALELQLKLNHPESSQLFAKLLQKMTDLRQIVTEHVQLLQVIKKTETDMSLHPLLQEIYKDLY
Chain of Peroxisome proliferator-activated receptor gamma/Nuclear receptor coactivator 2 (Q15596 whole entry, further chain): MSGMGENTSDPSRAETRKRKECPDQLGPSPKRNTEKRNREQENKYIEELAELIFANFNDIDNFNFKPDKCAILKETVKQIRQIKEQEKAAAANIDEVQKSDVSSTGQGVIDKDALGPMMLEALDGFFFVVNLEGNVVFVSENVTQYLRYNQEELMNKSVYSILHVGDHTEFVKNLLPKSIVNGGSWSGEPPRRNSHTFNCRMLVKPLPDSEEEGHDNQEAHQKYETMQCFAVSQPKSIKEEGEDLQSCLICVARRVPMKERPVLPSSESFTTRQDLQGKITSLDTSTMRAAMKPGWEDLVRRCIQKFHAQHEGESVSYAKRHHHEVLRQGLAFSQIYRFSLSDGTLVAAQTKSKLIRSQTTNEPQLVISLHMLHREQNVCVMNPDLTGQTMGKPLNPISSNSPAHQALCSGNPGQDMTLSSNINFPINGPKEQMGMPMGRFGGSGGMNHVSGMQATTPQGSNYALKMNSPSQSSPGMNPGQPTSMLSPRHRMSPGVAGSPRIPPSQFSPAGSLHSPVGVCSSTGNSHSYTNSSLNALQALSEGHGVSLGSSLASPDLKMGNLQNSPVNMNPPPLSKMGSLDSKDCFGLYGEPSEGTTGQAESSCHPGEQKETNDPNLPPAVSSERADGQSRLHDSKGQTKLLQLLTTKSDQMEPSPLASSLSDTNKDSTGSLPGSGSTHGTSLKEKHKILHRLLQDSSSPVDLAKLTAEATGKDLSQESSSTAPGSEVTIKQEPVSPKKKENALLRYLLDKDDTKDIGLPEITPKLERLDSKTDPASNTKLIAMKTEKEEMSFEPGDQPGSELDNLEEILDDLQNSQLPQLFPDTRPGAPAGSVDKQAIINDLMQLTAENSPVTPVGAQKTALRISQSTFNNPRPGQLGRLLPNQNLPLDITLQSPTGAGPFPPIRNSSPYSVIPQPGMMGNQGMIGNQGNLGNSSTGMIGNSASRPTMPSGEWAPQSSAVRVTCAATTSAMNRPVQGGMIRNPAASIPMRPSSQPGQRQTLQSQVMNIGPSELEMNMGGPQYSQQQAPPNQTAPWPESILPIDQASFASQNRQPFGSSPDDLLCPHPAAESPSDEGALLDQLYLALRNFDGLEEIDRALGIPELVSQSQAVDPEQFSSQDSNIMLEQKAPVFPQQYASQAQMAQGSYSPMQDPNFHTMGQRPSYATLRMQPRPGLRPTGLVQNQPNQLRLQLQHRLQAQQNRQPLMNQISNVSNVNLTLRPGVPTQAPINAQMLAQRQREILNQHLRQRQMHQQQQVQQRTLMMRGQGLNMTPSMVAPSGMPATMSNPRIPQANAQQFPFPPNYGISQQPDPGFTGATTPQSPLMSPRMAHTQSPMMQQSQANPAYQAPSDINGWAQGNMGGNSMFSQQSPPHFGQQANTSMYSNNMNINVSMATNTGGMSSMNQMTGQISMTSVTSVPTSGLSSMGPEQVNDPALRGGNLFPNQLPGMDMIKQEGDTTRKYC
Chain of Peroxisome proliferator-activated receptor gamma/Nuclear receptor coactivator 1 (P37231 whole entry): as the sequence (P37231 whole entry) above
Chain of Peroxisome proliferator-activated receptor gamma/Nuclear receptor coactivator 1 (Q15788 whole entry, further chain): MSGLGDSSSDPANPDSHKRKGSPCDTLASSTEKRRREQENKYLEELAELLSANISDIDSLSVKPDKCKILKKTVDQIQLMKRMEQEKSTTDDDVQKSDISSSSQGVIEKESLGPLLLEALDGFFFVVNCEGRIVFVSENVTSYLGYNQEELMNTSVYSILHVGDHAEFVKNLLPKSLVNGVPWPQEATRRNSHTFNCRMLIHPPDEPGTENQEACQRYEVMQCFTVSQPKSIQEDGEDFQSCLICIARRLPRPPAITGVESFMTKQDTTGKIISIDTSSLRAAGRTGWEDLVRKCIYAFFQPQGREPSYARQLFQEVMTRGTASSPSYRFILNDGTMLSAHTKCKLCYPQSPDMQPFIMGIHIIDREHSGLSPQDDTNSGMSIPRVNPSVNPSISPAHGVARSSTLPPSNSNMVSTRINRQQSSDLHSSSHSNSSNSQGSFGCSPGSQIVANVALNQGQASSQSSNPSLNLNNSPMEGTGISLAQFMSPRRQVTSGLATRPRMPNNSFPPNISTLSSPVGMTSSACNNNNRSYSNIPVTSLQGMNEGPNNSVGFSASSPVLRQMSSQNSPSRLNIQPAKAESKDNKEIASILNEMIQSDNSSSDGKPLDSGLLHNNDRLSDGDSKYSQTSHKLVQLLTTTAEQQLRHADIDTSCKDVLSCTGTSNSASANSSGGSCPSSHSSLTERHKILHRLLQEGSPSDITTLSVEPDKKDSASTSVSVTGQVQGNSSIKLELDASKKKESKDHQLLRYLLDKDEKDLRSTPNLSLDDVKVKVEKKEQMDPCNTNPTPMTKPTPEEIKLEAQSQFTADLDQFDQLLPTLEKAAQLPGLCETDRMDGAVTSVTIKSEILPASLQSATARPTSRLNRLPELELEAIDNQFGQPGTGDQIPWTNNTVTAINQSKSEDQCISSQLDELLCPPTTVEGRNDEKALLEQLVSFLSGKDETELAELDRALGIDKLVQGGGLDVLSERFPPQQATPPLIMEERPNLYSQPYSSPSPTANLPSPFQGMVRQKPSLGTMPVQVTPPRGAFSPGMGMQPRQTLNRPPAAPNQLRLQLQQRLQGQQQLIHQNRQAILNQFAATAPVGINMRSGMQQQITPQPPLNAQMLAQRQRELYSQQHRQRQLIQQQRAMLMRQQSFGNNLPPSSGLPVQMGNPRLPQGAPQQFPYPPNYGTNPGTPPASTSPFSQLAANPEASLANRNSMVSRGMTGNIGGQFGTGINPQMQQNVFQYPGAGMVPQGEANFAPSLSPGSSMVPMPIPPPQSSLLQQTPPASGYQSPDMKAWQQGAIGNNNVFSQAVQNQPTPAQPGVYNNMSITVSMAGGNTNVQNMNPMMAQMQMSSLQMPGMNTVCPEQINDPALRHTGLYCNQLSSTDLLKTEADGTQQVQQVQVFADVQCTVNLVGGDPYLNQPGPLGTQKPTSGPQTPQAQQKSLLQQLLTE

## COC(=O)c1oc2ccc(OC)cc2c1N
[1]
  AC50: 1.56 µM (active)

## N#Cc1c(O)nc(SCc2cccc(C(F)(F)F)c2)nc1-c1ccccc1
[2]
  IC50: > 20 µM (inactive)
[3]
  IC50: 13.2 µM (inactive)
[4]
  IC50: 19 µM (active)
[5]
  EC50: 2.63 µM (active)
[6]
  EC50: 6.55 µM (active)
[7]
  IC50: > 20 µM (inactive)
[8]
  EC50: 10.3 µM (active)

## O=C1C([N-]S(=O)(=O)c2cccs2)=C([n+]2cccc(Cc3ccccc3)c2)C(=O)c2ccccc21
[9]
  EC50: > 99 µM (inactive)
[10]
  AC50: 2.69 µM (active)
[5]
  EC50: 1.53 µM (active)
[11]
  IC50: 9.51 µM (active)
[12]
  EC50: > 260 µM (inactive)
[13]
  IC50: 12.9 µM (active)
[8]
  EC50: 1.6 µM (active)
[14]
  EC50: 36.5 µM (inactive)

## CCCn1cc(S(=O)(=O)CC(=O)Nc2ccc(OC)cc2OC)c2ccccc21
[15]
  IC50: 59.9 µM (inactive)

## CCn1c(=O)cc(SCC(=O)Nc2ccc3c(c2)OCO3)c2ccccc21
[16]
  EC50: 35.4 µM (not active)
[17]
  EC50: > 79.4 µM (not active)
[18]
  EC50: 52.9 µM (inactive)

## COCCNC(=O)CSc1cc(=O)n(C)c2cc(Cl)ccc12
[16]
  EC50: > 79.4 µM (not active)
[17]
  EC50: > 79.4 µM (not active)
[18]
  EC50: > 79.4 µM (inactive)

## NC(=S)NN=Cc1nccc2c(N)cccc12
[19]
  AC50: 1.55 µM (active)

## O=C(O)C1=CCCN(CCON=C(c2ccccc2)c2ccccc2)C1
[20]
  AC50: 35.5 µM (inconclusive)

## CN(C)c1nc(N)c(C(=O)NC(=N)N)nc1Cl [5-(N,N-DIMETHYL)AMILORIDE HYDROCHLORIDE]
[21]
  AC50: 18 µM (active)
[20]
  AC50: 17.8 µM (inconclusive)
